Source: PubChem BioAssay AID2060899 (Molecular Pharmacology Branch, DTP, NCI, 2025)

Tested on: 565726-208-R1-J5-PDC complex spheroids, growth inhibition
Experiment: Anticancer human tumor 565726-208-R1-J5-PDC patient-derived pancreatic adenocarcinoma cell line growth inhibition [RAS]
Settings: for IC50: curve of first compound; for viability, T/C: stronger effect = lower value
Procedure, shortened: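 Agents were tested in combination matrices in half-log decrements from a top concentration at or near clinical Cmax (10 microM if undetermined). Targets were multi-cell spheroids of tumour lines plus HUVEC and MSC stromal cells.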

[1] = second compound 0.000949 µM, first compound 0.0316 µM
[2] = second compound 0.000949 µM, first compound 0.1 µM
[3] = second compound 0.000949 µM, first compound 0.316 µM
[4] = second compound 0.000949 µM, first compound 1 µM
[5] = second compound 0.003 µM, first compound 0.0316 µM
[6] = second compound 0.003 µM, first compound 0.1 µM
[7] = second compound 0.003 µM, first compound 0.316 µM
[8] = second compound 0.003 µM, first compound 1 µM
[9] = second compound 0.00949 µM, first compound 0.0316 µM
[10] = second compound 0.00949 µM, first compound 0.1 µM
[11] = second compound 0.00949 µM, first compound 0.316 µM
[12] = second compound 0.00949 µM, first compound 1 µM
[13] = second compound 0.03 µM, first compound 0.0316 µM
[14] = second compound 0.03 µM, first compound 0.1 µM
[15] = second compound 0.03 µM, first compound 0.316 µM
[16] = second compound 0.03 µM, first compound 1 µM
[17] = second compound 0.0949 µM, first compound 0.0316 µM
[18] = second compound 0.0949 µM, first compound 0.1 µM
[19] = second compound 0.0949 µM, first compound 0.316 µM
[20] = second compound 0.0949 µM, first compound 1 µM
[21] = second compound 0.3 µM, first compound 0.0316 µM
[22] = second compound 0.3 µM, first compound 0.1 µM
[23] = second compound 0.3 µM, first compound 0.316 µM
[24] = second compound 0.3 µM, first compound 1 µM
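Further: spheroids exposed to compounds for seven days before readout.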
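Wherever viability, T/C is given: 100% = DMSO vehicle control viability.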

## CC(=O)OC12COC1CC(O)C1(C)C(=O)C(O)C3=C(C)C(OC(=O)C(O)C(NC(=O)OC(C)(C)C)c4ccccc4)CC(O)(C(OC(=O)c4ccccc4)C21)C3(C)C (stereo unspecified) + CCn1c(-c2cc(N3CCN(C)CC3)cnc2C(C)OC)c2c3cc(ccc31)-c1csc(n1)CC(NC(=O)C1CC1C)C(=O)N1CCCC(N1)C(=O)OCC(C)(C)C2
Second compound 0.000949 µM
  IC50: < 31.6 nM
Second compound 0.003 µM
  IC50: < 31.6 nM
Second compound 0.00949 µM
  IC50: < 31.6 nM
Second compound 0.03 µM
  IC50: < 31.6 nM
Second compound 0.0949 µM
  IC50: < 31.6 nM
Second compound 0.3 µM
  IC50: < 31.6 nM
[1]
  viability, T/C: 20.3%
[2]
  viability, T/C: 17%
[3]
  viability, T/C: 19.2%
[4]
  viability, T/C: 17.7%
Second compound 0.000949 µM, first compound 3.16 µM
  viability, T/C: 20.2%
Second compound 0.000949 µM, first compound 10 µM
  viability, T/C: 20.8%
[5]
  viability, T/C: 20.4%
[6]
  viability, T/C: 17.7%
[7]
  viability, T/C: 17.2%
[8]
  viability, T/C: 15.5%
Second compound 0.003 µM, first compound 3.16 µM
  viability, T/C: 18.7%
Second compound 0.003 µM, first compound 10 µM
  viability, T/C: 18.4%
[9]
  viability, T/C: 17.9%
[10]
  viability, T/C: 17.1%
[11]
  viability, T/C: 14.7%
[12]
  viability, T/C: 16%
Second compound 0.00949 µM, first compound 3.16 µM
  viability, T/C: 17.6%
Second compound 0.00949 µM, first compound 10 µM
  viability, T/C: 15.2%
[13]
  viability, T/C: 14.5%
[14]
  viability, T/C: 13.7%
[15]
  viability, T/C: 11.5%
[16]
  viability, T/C: 14.5%
Second compound 0.03 µM, first compound 3.16 µM
  viability, T/C: 13.7%
Second compound 0.03 µM, first compound 10 µM
  viability, T/C: 13.6%
[17]
  viability, T/C: 11.7%
[18]
  viability, T/C: 13%
[19]
  viability, T/C: 14.6%
[20]
  viability, T/C: 12.5%
Second compound 0.0949 µM, first compound 3.16 µM
  viability, T/C: 14.1%
Second compound 0.0949 µM, first compound 10 µM
  viability, T/C: 11.3%
[21]
  viability, T/C: 10.4%
[22]
  viability, T/C: 10.5%
[23]
  viability, T/C: 11.4%
[24]
  viability, T/C: 11.3%
Second compound 0.3 µM, first compound 3.16 µM
  viability, T/C: 12%
Second compound 0.3 µM, first compound 10 µM
  viability, T/C: 10.4%

## CCc1c2c(nc3ccc(O)cc13)-c1cc3c(c(=O)n1C2)COC(=O)[C@]3(O)CC + CCn1c(-c2cc(N3CCN(C)CC3)cnc2C(C)OC)c2c3cc(ccc31)-c1csc(n1)CC(NC(=O)C1CC1C)C(=O)N1CCCC(N1)C(=O)OCC(C)(C)C2
Second compound 0.000949 µM
  IC50: 1.36 nM
Second compound 0.003 µM
  IC50: < 0.949 nM
Second compound 0.00949 µM
  IC50: < 0.949 nM
Second compound 0.03 µM
  IC50: < 0.949 nM
Second compound 0.0949 µM
  IC50: < 0.949 nM
Second compound 0.3 µM
  IC50: < 0.949 nM
Second compound 0.000949 µM, first compound 0.000949 µM
  viability, T/C: 58%
Second compound 0.000949 µM, first compound 0.003 µM
  viability, T/C: 32.1%
Second compound 0.000949 µM, first compound 0.00949 µM
  viability, T/C: 21.2%
Second compound 0.000949 µM, first compound 0.03 µM
  viability, T/C: 16.2%
Second compound 0.000949 µM, first compound 0.0949 µM
  viability, T/C: 9.45%
Second compound 0.000949 µM, first compound 0.3 µM
  viability, T/C: 5.7%
Second compound 0.003 µM, first compound 0.000949 µM
  viability, T/C: 47.9%
Second compound 0.003 µM, first compound 0.003 µM
  viability, T/C: 32.1%
Second compound 0.003 µM, first compound 0.00949 µM
  viability, T/C: 25.3%
Second compound 0.003 µM, first compound 0.03 µM
  viability, T/C: 17.7%
Second compound 0.003 µM, first compound 0.0949 µM
  viability, T/C: 12.1%
Second compound 0.003 µM, first compound 0.3 µM
  viability, T/C: 6.82%
Second compound 0.00949 µM, first compound 0.000949 µM
  viability, T/C: 36.1%
Second compound 0.00949 µM, first compound 0.003 µM
  viability, T/C: 30%
Second compound 0.00949 µM, first compound 0.00949 µM
  viability, T/C: 21.6%
Second compound 0.00949 µM, first compound 0.03 µM
  viability, T/C: 16%
Second compound 0.00949 µM, first compound 0.0949 µM
  viability, T/C: 12.1%
Second compound 0.00949 µM, first compound 0.3 µM
  viability, T/C: 6.89%
Second compound 0.03 µM, first compound 0.000949 µM
  viability, T/C: 27.9%
Second compound 0.03 µM, first compound 0.003 µM
  viability, T/C: 24.1%
Second compound 0.03 µM, first compound 0.00949 µM
  viability, T/C: 20.7%
Second compound 0.03 µM, first compound 0.03 µM
  viability, T/C: 15.9%
Second compound 0.03 µM, first compound 0.0949 µM
  viability, T/C: 11.9%
Second compound 0.03 µM, first compound 0.3 µM
  viability, T/C: 6.36%
Second compound 0.0949 µM, first compound 0.000949 µM
  viability, T/C: 22.6%
Second compound 0.0949 µM, first compound 0.003 µM
  viability, T/C: 23.4%
Second compound 0.0949 µM, first compound 0.00949 µM
  viability, T/C: 18.6%
Second compound 0.0949 µM, first compound 0.03 µM
  viability, T/C: 13.6%
Second compound 0.0949 µM, first compound 0.0949 µM
  viability, T/C: 10.4%
Second compound 0.0949 µM, first compound 0.3 µM
  viability, T/C: 6.38%
Second compound 0.3 µM, first compound 0.000949 µM
  viability, T/C: 21.4%
Second compound 0.3 µM, first compound 0.003 µM
  viability, T/C: 20.8%
Second compound 0.3 µM, first compound 0.00949 µM
  viability, T/C: 15.6%
Second compound 0.3 µM, first compound 0.03 µM
  viability, T/C: 14.6%
Second compound 0.3 µM, first compound 0.0949 µM
  viability, T/C: 10.7%
Second compound 0.3 µM, first compound 0.3 µM
  viability, T/C: 5.7%

## Nc1ccn(C2OC(CO)C(O)C2(F)F)c(=O)n1 (stereo unspecified) + CCn1c(-c2cc(N3CCN(C)CC3)cnc2C(C)OC)c2c3cc(ccc31)-c1csc(n1)CC(NC(=O)C1CC1C)C(=O)N1CCCC(N1)C(=O)OCC(C)(C)C2
Second compound 0.000949 µM
  IC50: 21.9 nM
Second compound 0.003 µM
  IC50: 7.2 nM
Second compound 0.00949 µM
  IC50: < 3.16 nM
Second compound 0.03 µM
  IC50: < 3.16 nM
Second compound 0.0949 µM
  IC50: < 3.16 nM
Second compound 0.3 µM
  IC50: < 3.16 nM
Second compound 0.000949 µM, first compound 0.00316 µM
  viability, T/C: 63.3%
Second compound 0.000949 µM, first compound 0.01 µM
  viability, T/C: 54.7%
[1]
  viability, T/C: 49.9%
[2]
  viability, T/C: 34.4%
[3]
  viability, T/C: 35%
[4]
  viability, T/C: 27.8%
Second compound 0.003 µM, first compound 0.00316 µM
  viability, T/C: 56.7%
Second compound 0.003 µM, first compound 0.01 µM
  viability, T/C: 46.3%
[5]
  viability, T/C: 40.4%
[6]
  viability, T/C: 33.6%
[7]
  viability, T/C: 33.1%
[8]
  viability, T/C: 24.3%
Second compound 0.00949 µM, first compound 0.00316 µM
  viability, T/C: 38.8%
Second compound 0.00949 µM, first compound 0.01 µM
  viability, T/C: 42.1%
[9]
  viability, T/C: 34.2%
[10]
  viability, T/C: 29.1%
[11]
  viability, T/C: 28.3%
[12]
  viability, T/C: 23.7%
Second compound 0.03 µM, first compound 0.00316 µM
  viability, T/C: 28.9%
Second compound 0.03 µM, first compound 0.01 µM
  viability, T/C: 31.7%
[13]
  viability, T/C: 24.4%
[14]
  viability, T/C: 22.1%
[15]
  viability, T/C: 24.1%
[16]
  viability, T/C: 21.7%
Second compound 0.0949 µM, first compound 0.00316 µM
  viability, T/C: 25.4%
Second compound 0.0949 µM, first compound 0.01 µM
  viability, T/C: 26.9%
[17]
  viability, T/C: 23.1%
[18]
  viability, T/C: 21.1%
[19]
  viability, T/C: 19.1%
[20]
  viability, T/C: 18.9%
Second compound 0.3 µM, first compound 0.00316 µM
  viability, T/C: 22.3%
Second compound 0.3 µM, first compound 0.01 µM
  viability, T/C: 25.2%
[21]
  viability, T/C: 23.3%
[22]
  viability, T/C: 20.9%
[23]
  viability, T/C: 22.2%
[24]
  viability, T/C: 19%
